Data published in US11311609B2, “Regulating chimeric antigen receptors” (DANA-FARBER CANCER INSTITUTE, INC., priority 2017, dated 2022).

What was measured:
FKBP* = target: T1, FKBP* (Homo sapiens, UniProt P62942, F37V); experiment: Immunoblot of FKBP* degradation in 293FT cells (CRBN-WT or CRBN-/-); format: cell-based; conditions: 4 hours
T1 construct: HA; expressed in transfected cells; host or cells: 293FT cells (CRBN-WT or CRBN-/-)
Protocol: FIG. 6 is an immunoblot of cells treated with bi-functional molecules described in the present invention. As described in Example 3, 293FT cells (CRBN-WT or CRBN−/−) expressing either HA-tagged FKBP12WT or FKBP* (also referred to as dFKBP12* herein) were treated with indicated concentrations of dFKBP7 for 4 hours.
FIG. 8 is an immunoblot of cells treated with heterobifunctional compounds described in the present invention. Isogenic 293FT cells (CRBN-WT or CRBN−/−) expressing either FKBP12WT or FKBP* were treated with 100 nM of either dFKBP7 or dFKBP13 for 4 hours (Example 5).
FIG. 9 is an immunoblot of cells treated with heterobifunctional compounds described in the present invention. Isogenic 293FT cells (CRBN-WT or CRBN−/−) expressing HA-tagged FKBP* were treated with the indicated dose of dFKBP13 for 4 hours (Example 6).
FIG. 11 is an immunoblot of cells treated with heterobifunctional compounds described in the present invention. 293FT cells (CRBN-WT) expressing FKBP* were pretreated with 1 uM Carfilzomib (proteasome inhibitor), 0.5 uM MLN4924 (neddylation inhibitor), and 10 uM Lenalidomide (CRBN binding ligand) for two hours prior to a 4 hour treatment with dFKBP13 (Example 8). Degradation of HA-tagged FKBP* by dFKBP13 was rescued by the proteasome inhibitor Carfilzomib, establishing a requirement for proteasome function.
(§1) The dTAG is predicated on the selectivity of FKBP* specific ligands over endogenous, wild type FKBP. In 293T cells expressing wild type FKBP12 or FKBP*, dFKBP7 induces targeted degradation only in FKBP* expressing cells. An immunoblot of cells treated with bi-functional molecules described in the present invention was performed. 293FT cells (CRBN-WT or CRBN−/−) expressing either HA-tagged FKBP12WT or FKBP* were treated with indicated concentrations of dFKBP7 for 4 hours.
In 293T cells expressing wild type FKBP12 or FKBP*, treatment with dFKBP7 and dFKBP13 induces targeted degradation only in FKBP* expressing cells. Isogenic 293FT cells (CRBN-WT or CRBN−/−) were engineered to express either FKBP12WT or FKBP*. Cells were treated with 100 nM of either dFKBP7 or dFKBP13 for 4 hours before lysates were prepared for western immunoblot analysis.
In an effort to define the optimal concentration of dFKB13 heterobifunctional compounds to induce degradation of FKBP*, degradation was measured upon treatment with increasing concentrations of dFKBP13. Isogenic 293FT cells (CRBN-WT or CRBN−/−) were engineered to expressed HA-tagged FKBP*. Cells were treated with the indicated dose of dFKBP13 for 4 hours before lysates were prepared for western immunoblot analysis.
293FT cells (CRBN-WT) were engineered to express FKBP*. Cells were pretreated with 1 uM Carfilzomib (proteasome inhibitor), 0.5 uM MLN4924 (neddylation inhibitor), and 10 uM Lenalidomide (CRBN binding ligand) for two hours prior to a 4-hour treatment with dFKBP13. Lysates were prepared and western immunoblot analysis performed. Degradation of HA-tagged FKBP* by dFKBP13 was rescued by the proteasome inhibitor Carfilzomib, establishing a requirement for proteasome function.

FKBP12WT = target: T2, FKBP12WT (Homo sapiens, UniProt P62942); experiment: Immunoblot of wild type FKBP12 degradation in 293FT cells (CRBN-WT or CRBN-/-); format: cell-based; conditions: 4 hours
T2 construct: HA; expressed in transfected cells; host or cells: 293FT cells (CRBN-WT or CRBN-/-)
Protocol: FIG. 6 is an immunoblot of cells treated with bi-functional molecules described in the present invention.
as §1, with “In 293T cells expressing wild type FKBP12 or FKBP*, dFKBP7 induces targeted degradation only in FKBP* expressing cells.” left out
Isogenic 293FT cells (CRBN-WT or CRBN−/−) were engineered to express either FKBP12WT or FKBP*. Cells were treated with 100 nM of either dFKBP7 or dFKBP13 for 4 hours before lysates were prepared for western immunoblot analysis.

SMART-CAR = SMART-CAR expression in Jurkat T-cells by flow cytometry with HA-antibody; format: cell-based, human; conditions: 4 hour pretreatment 250 nM, wash, retreatment with 250 nM dFKBP7; 1:1 co-culture
Excerpt: FIG. 27 is a histogram plot illustrating the ability to track SMART-CAR expression in Jurkat cells. SMART-CAR expressing Jurkat cells were stained with a HA-antibody and subsequently labelled with a secondary Alexa647 fluorescent antibody. Stained cells were subject to flow cytometry with excitation with a 647 nm laser and HA expression quantified via Alexa647 fluorescent signal (Example 24). The observed shift in signal illustrates the ability to track SMART-CAR expression in Jurkat T cells.
FIG. 31 are line plots tracking CD19 positive tumor cells and SMART-CAR expression levels as described in the experimental setup in FIG. 20 and described in Example 26. After the 4 hour pretreatment with 250 nM of dFKBP7, SMART-CAR expressing Jurkats were mixed in a 1:1 ratio with CD19 positive tumor cells (Daudi: top and Raji: bottom) in the presence (green line) or absence (blue line) of 250 nM of dFKBP7. […]
FIG. 27 illustrates the use of flow cytometry to monitor SMART-CAR protein expression in Jurkat T-cells. […] This allows for quantitative measurements of SMART-CAR protein expression levels.
SMART-CAR expressing Jurkat cells were pretreated with dFKBP7 at 250 nM for 4 hours to allow for maximal degradation of SMART-CAR. […] The two experimental arms were then mixed at a 1:1 ratio with CD19 positive tumor cells and CD19-positive tumor cells monitored by flow cytometry. […]

[1] = 293FT cells CRBN-WT or CRBN-/-, indicated concentrations
[2] = isogenic 293FT cells CRBN-WT or CRBN-/-, 100 nM

T2 sequence (P62942 whole entry): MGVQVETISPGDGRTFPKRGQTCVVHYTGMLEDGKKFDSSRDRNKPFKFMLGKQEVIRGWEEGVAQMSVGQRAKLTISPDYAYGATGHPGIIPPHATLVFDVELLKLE
T1 sequence (P62942 whole entry F37V): as the sequence (P62942 whole entry) above, with F37V counted along it

## CC[C@H](C(=O)N1CCCC[C@H]1C(=O)O[C@H](CCc1ccc(OC)c(OC)c1)c1cccc(OCC(=O)NCCCOCCOCCOCCCNC(=O)COc2cccc3c2C(=O)N(C2CCC(=O)NC2=O)C3=O)c1)c1cc(OC)c(OC)c(OC)c1 (some centres unmarked) [dFKBP7]
FKBP*; [1]
  Degradation of HA-tagged FKBP* (immunoblot): CRBN-dependent degradation of FKBP*
FKBP*; [2]
  Degradation of FKBP* (immunoblot): CRBN-dependent degradation of FKBP*
FKBP12WT; [1]
  Degradation of HA-tagged FKBP12WT (immunoblot): not FKBPWT
FKBP12WT; [2]
  Degradation of FKBP12WT or endogenous FKBP12 (immunoblot): not FKBP12WT or endogenous FKBP12
SMART-CAR
  SMART-CAR expression: minimal
